Source: patent US4470840A, “1-Triacontanol plant growth stimulator formulations” (Biochemical Research Corporation, priority 1981, dated 1984)

Columns and labels:
Assay type in all cases: in vivo
[1] = test system: Beans (cv. Blue Lakes Stringless, Early Bird); assay: Field trial: crop yield and seed size; conditions: 100 seeds, CaCl2 5 mM, no IAA, 1-triacontanol 0.25 mg/liter
Protocol: (§1) Field trials were conducted in Northern Virginia on plots that were replicated at least five items. Plots consisted of single rows of plants in blocks of three or more plots, with treatments being assigned randomly within each block.
(§2) Plants were fertilized with the fertilizers described in Table 1, and sprayed at air temperatures listed in the same Table. Spraying was usually avoided under windy conditions to avoid drift.

[2] = test system: Sweet Corn (cv. Silver Queen, Early Sunglow, Jubilee); assay: Field trial: crop yield and seed size; conditions: for Percent increase in marketable yield: triacontanol 0.25 mg/l
Protocol: as §1, §2

[3] = test system: Cucumbers (cv. Straight Eight, Improved White Spine); assay: Field trial: crop yield; conditions: for Increase (crop yield) / Fresh wt. (crop yield): cv. Improved White Spine, TRIACON-10, 1-triacontanol 0.25 mg/liter, pH 9.8
Protocol: as §1, §2

[4] = test system: Soybean Seedlings (cv. Prize); assay: Greenhouse trial: dry weight of seedlings; conditions: for Dry wt.: per four plants per plot
Protocol: (§3) In general, greenhouse trials were conducted as follows: eight to twelve seeds were sown per pot in Peat-Lite® Mix and received an average of 100 ml of water per day. After plants had the third true leaf (average), the various formulations were applied to the leaves as a fine mist at air temperatures listed in Table 1. Temperatures above 20° C., preferably 25°-30° C., are preferred.
(§4) The 1-triacontanol formulation most generally used consisted of a concentrate containing 5 mg of 1-triacontanol dissolved in 1 liter of acetone, with 20 ml of the concentrate being further dissolved to 1 liter with water having a pH between 8 and 10, with over a pH of 11 also being effective. The pH was adjusted with aqueous NaOH and the concentrate added just prior to spraying.
(§5) When other plant growth substances were added to the formulations, these were added either to the concentrate in the polar organic solvent or alternatively in the aqueous solution, depending on the solubility of the plant growth substance. All metal salts were added to the water used to spray the 1-triacontanol formulations. After spraying, preferably about four to nine days or more, plants were harvested with roots, and fresh weights were obtained. Plants were then dried in an oven, preferably at a temperature below 100° C., until constant weight was obtained, and dry weight values were obtained for each plot. Subtraction of the dry weights from the fresh weights gave the water uptake weights (water content) of each plot. The weights of the above mentioned seedlings were compared to the control weights to obtain the percent increases.
(§6) It is particularly advantageous to arrange each of the potted plants in size range categories corresponding to the number of replications used. For example, if five replications are employed, plants are divided into five size categories, normally measured by the height of the plants. Treatments are then assigned randomly within each block (size category). This removes the variation due to plant size for statistical purposes, as is well practiced in the art. The resulting data is analyzed using any appropriate means, which may include the least significant difference method (L.S.D. method), Duncan's multiple range test, as used here (Biometrics, 11: 1 (1955)), or other means.

[5] = test system: Watermelon Seedlings (cv. Dixie Queen); assay: Greenhouse trial: dry weight of seedlings; conditions: 1-triacontanol 0.1 mg/liter, pH 9.8; for Dry wt.: per 4 plants
Protocol: as §3, §4, §5, §6

[6] = test system: Winter Wheat Seedlings (cv. Augusta); assay: Greenhouse trial: dry weight of seedlings; conditions: triacontanol 0.1 mg/l, pH 9.0
Protocol: as §3, §4, §5, §6

[7] = CaCl2 5 mM, 1-triacontanol 0.1 mg/liter
[8] = CaCl2 10 mM, 1-triacontanol 0.1 mg/liter
[9] = CaCl2 20 mM, 1-triacontanol 0.1 mg/liter
[10] = CaCl2 50 mM, NAA 1.5 μM (Formulation 7)

## CCCCCCCCCCCCCCCCCCCCCCCCCCCCCCO [1-Triacontanol, 1-triacontanol]
[1]
  Percent increases (size of seeds): +54%
[1]; control seed 18.1
  Wt. of treated seed: 27.8 g
[2]; cv. Early Sunglow, CaCl2 10 mM, no IAA, pH 9.8
  Percent increase in marketable yield: +47%
[2]; cv. Early Sunglow, CaCl2 50 mM, IAA 10 μM, pH 9.8
  Percent increase in marketable yield: +20%
[2]; cv. Jubilee, CaCl2 10 mM, no IAA, pH 9.7
  Percent increase in marketable yield: +44%
[2]; cv. Jubilee, CaCl2 50 mM, IAA 10 μM, pH 9.7
  Percent increase in marketable yield: +31%
[2]; cv. Silver Queen, 500 seeds, CaCl2 9 mM, no IAA, 1-triacontanol 0.25 mg/liter
  Percent increases (size of seeds): +47%
[2]; cv. Silver Queen, 500 seeds, CaCl2 9 mM, no IAA, 1-triacontanol 0.25 mg/liter, control seed 29.7 g
  Wt. of treated seed: 43.8 g
[2]; cv. Silver Queen, CaCl2 10 mM, no IAA, pH 10.4
  Percent increase in marketable yield: +49%
[2]; cv. Silver Queen, CaCl2 50 mM, IAA 10 μM, pH 10.4
  Percent increase in marketable yield: +16%
[2]; cv. Silver Queen, previous year, three out of three trials
  Increases (field trial data for the previous year): 51-54%
[3]; CaCl2 5 mM
  Increase (crop yield): +88%
[3]; CaCl2 5 mM, control 9575 g
  Fresh wt. (crop yield): 17980 g
[3]; CaCl2 50 mM
  Fresh wt. (crop yield): 11725 g
  Increase (crop yield): +22%
[3]; cv. Straight Eight, previous year, pH 8.7, CaCl2 4.5 mM
  Increase over controls (crop yield): 101%
[4]; CaCl2 3 mM as printed, 1-triacontanol 0.1 mg/liter
  Dry wt.: 1.96 g
[4]; [7]
  Increase (dry weight): +17%
  Dry wt.: 2.30 g
[4]; [8]
  Increase (dry weight): +37%
  Dry wt.: 2.68 g
[4]; [9]
  Increase (dry weight): +35%
  Dry wt.: 2.65 g
[4]; line printed as "Control" but with an increase
  Increase (dry weight): +7%
[5]; CaCl2 5 mM, no IAA
  Percent increases (dry weight): +38%
[5]; CaCl2 5 mM, no IAA, sprayed Day 36, harvested Day 45, control 0.61 g
  Dry wt.: 0.84 gm
[5]; CaCl2 10 mM, no IAA
  Percent increases (dry weight): +48%
  Dry wt.: 0.90 gm
[5]; CaCl2 50 mM, IAA 10 μM
  Percent increases (dry weight): +65%
  Dry wt.: 1.01 gm
[6]; CaCl2 0 mM, no NAA
  Increase (dry weight): 0%
[6]; CaCl2 0 mM, no NAA, average sum of four plants per plot, control 0.513 g
  Dry wt.: 0.520 g
[6]; CaCl2 5 mM, no NAA
  Dry wt.: 0.502 g
  Increase (dry weight): -2%
[6]; CaCl2 10 mM, no NAA
  Dry wt.: 0.682 g
  Increase (dry weight): +33%
[6]; CaCl2 15 mM, no NAA
  Dry wt.: 0.616 g
  Increase (dry weight): +20%
[6]; CaCl2 20 mM, no NAA
  Dry wt.: 0.682 g
  Increase (dry weight): +33%
[6]; CaCl2 25 mM, no NAA
  Dry wt.: 0.708 g
  Increase (dry weight): +38%
[6]; [10]
  Dry wt.: 0.872 g
  Increase (dry weight): +70%
